In patent US4853221A, “Method for treating non-small cell lung cancer, head and neck cancers and breast cancer” (Warner-Lambert Company, priority 1987, dated 1989):

Tests used:
[1] = test system: L5178Y; assay: Inhibition of L5178Y cell growth in vitro; assay type: cell-based, murine
Protocol: Two leukemia cell lines (L1210 and L5178Y) and two solid tumor cell lines (Sarcoma 180 and Walker 256) were used in these studies.
(§1) Logarithmically growing L1210 cells (approximately 3×10^5 cells/ml) were diluted with Fischer's medium (containing 10% horse serum) to an approximate concentration of 5×10^4 cells/ml. Cells were planted in duplicate into 15 ml culture tubes containing either no drug or various amounts of drug, and incubated for 48 hours at 37° C. before being counted.
(§2) Trimetrexate was also evaluated in a similar manner side-by-side with methotrexate for its effect on the growth of three additional murine cell lines (L5178Y, Sarcoma-180, and Walkler-256) and three human cell lines (acute myelogenous leukemia K-562, T-cell 8402, and B-cell 8392), propagated in vitro.

[2] = test system: non-small cell lung cancer; assay: Phase I clinical trials, non-small cell lung cancer; assay type: in vivo, human; conditions: single agent
Protocol: (§3) Several Phase I clinical trials employing trimetrexate in human patients were carried out. In one study, 36 patients were treated with trimetrexate as a single agent at daily doses of 0.5 mg/m^2 /day to 12 mg/m^2 /day administered intravenously for five days.
(§4) In additional Phase I clinical studies, patients were administered trimetrexate with single intravenous doses ranging between 5 and 450 mg/m^2 and with weekly doses of slightly greater than 100 mg/m^2.

[3] = test system: cancer of the pancreas; assay: Phase I clinical trials, cancer of the pancreas; assay type: in vivo, human; conditions: single agent
Protocol: as §3, §4

[4] = test system: breast cancer; assay: Phase II trial, breast cancer; assay type: in vivo, human
Protocol: The efficacy and safety of trimetrexate in the treatment of patients with breast cancer was evaluated in an 10-center Phase II study. Twenty-eight patients participated in the multicenter study, with a group of 20 patients considered evaluable. […] All patients had metastatic disease and the principal sites of metastasis included lung, bone, and liver.
Patients were initially treated intravenously with 8 mg/m^2 /day of trimetrexate on Days 1 through 5 of a 21-day treatment cycle. Patients were evaluated after each treatment course and were withdrawn from the study if progressive disease was documented. Patients were eligible to received six courses of treatment if stable disease was documented; treatment beyond six courses was left to the discretion of the physician. The dose of trimetrexate was adjusted for each patient prior to each subsequent course of treatment based upon the patient reaction to the drug in the preceding course of treatment, and ranged from 8 mg/m^2 /day to about […]. A total of 91 courses of treatment were administered to the patients in the study.

[5] = test system: Miscell. tumors; assay: Human tumor cloning system, miscellaneous tumors; assay type: cell-based; conditions: one hour, 10 specimens
Source text: (§5) The activity of trimetrexate was compared with that of methotrexate in tests with a human tumor cloning system (Latham, et al., Proc. Am. Assoc. Cancer Res., 24: 278 (1983)). The data from these tests appear in Table III were the activities are expressed as the numbers of tumors with 50% or greater reduction in tumor colony forming units after one hour exposure to the drug.

[6] = test system: Renal tumor; assay: Human tumor cloning system, renal tumors; assay type: cell-based; conditions: one hour, 6 specimens
Source text: as §5

[7] = test system: Early Stage P388 Leukemia; assay: Combination chemotherapy, therapeutic synergy against early stage P388 leukemia; assay type: in vivo, mouse; conditions: Test 1
Protocol: Several studies were carried out to determine the potential for therapeutic synergy of trimetrexate with several clinically active anticancer agents. […] (See, for example, Vendetti, "Relevance of Transplantable Animal-Tumor Systems to the Selection of New Agents for Clinical Trial," Pharmacological Basis of Cancer Chemotherapy. Williams and Wilkins, Baltimore, 1975, and Simpson Herren, et al., "Evaluation of In Vivo Tumor Models for Predicting Clinical Activity for Anticancer Drugs," Proc. Am. Assoc. Cancer Res., 26: 330 (1985).
Differences in cell kill of greater than ten-fold (one log) were considered indicative of therapeutic synergy.
CD2F1 mice were quarantined for at least two weeks prior to allocation to test groups. P388 leukemia was passaged in DBA2 mice according to standard protocols of the National Cancer Institute. On Day 0 of a given test, all mice in the test were randomized, injected intraperitoneally with suitably diluted ascites fluid from P388 tumor-bearing donor mice and rerandomized to test cages.
The initial inoculum for all but titration groups was 10^6 cells as determined by hemocytometer count. Each experiment contained an internal control and tumor titration which enabled the determination of the tumor doubling time and estimates of the log cell kill and number of tumor cells surviving treatment.
Drug treatment was begun either on Day 1 or on Day 4 depending upon the relative activity of the agents being tested.
All of the drugs were injected within one hour of dissolution, with the exception of trimetrexate which was made up fresh twice daily. All mice were treated on the basis of average cage-group weight.
In drug combination regimens, trimetrexate was given approximately 30 minutes before the other therapeutic agents when the route of administration of the other agent was ip. […]
Group average weights were determined for all groups on Days 1, 5, and 9 for "early stage" P388 tests and on Days 4, 8, and 12 for "advanced stage" P388 tests. Animals were monitored for life span. […]

[8] = test system: human tumor cultures; assay: Human tumor cloning system, all tumors; assay type: cell-based; conditions: for Number of Tumors with 50% or Greater Decrease in Tumor Colony Forming Units: Totals, one hour, 54 specimens
Source text: as §5

[9] = test system: T-Cell 8402; assay: Inhibition of T-Cell 8402 growth in vitro; assay type: cell-based, human; conditions: 48 h; Human T-Cell 8402; read-out: ED50 (the source's name)
Protocol: as §1, §2

[10] = test system: Lewis lung carcinoma; assay: Antitumor activity against Lewis lung carcinoma in mice; assay type: in vivo, mouse; conditions: optimal dose 40 mg/kg (dose range 40-1.25), IV daily, Days 1-9
Protocol: The growth inhibition properties of 5-methyl-6-[[(3,4,5-trimethoxyphenyl)amino]methyl]-2,4-quinazolinediamine (trimetrexate) against several transplanted murine tumors were evaluated employing the antitumor screening program of the Drug Evaluation Branch of the National Cancer Institute. The protocols for these tests is described in Cancer Chemotherapy Reports, 3: 1-103 (1972). The dosing schedules are results from these tests appear in Table IV.
Percent increase in median life span (% ILS) values appearing in the tables were calculated from the formula; 100×(median life span in days of treated mice minus median life span in days of untreated mice) divided by median life span in days of untreated control mice. That is, % ILS=[100×(T-C)]/C. % T/C and %ILS are directly interconvertible by the formula % ILS=% T/C -100.
In all of the mouse tumor studies described above, routine controls consisted of matching ten normal mice (with no tumors) to each tumor-bearing treatment group and injecting them with the same drug at the same dosages, schedules, days of administration, and drug route as the tumor-bearing mice. In this way, drug-induced toxicity (lethality and weight loss) could be clearly separated from the effects of the drug on the tumors.

## COc1cc(NCc2ccc3nc(N)nc(N)c3c2C)cc(OC)c1OC [Trimetrexate, 5-methyl-6-[[(3,4,5-trimethoxyphenyl)amino]methyl]-2,4-quinazolinediamine]
[1]; Mus musculus, 48 h, Murine L5178Y, read-out: ED50 (the source's name)
  IC50: 2 nM
[1]; on a molar basis
  potency relative to methotrexate: only slightly more effective on a molar basis
[2]
  patients with favorable responses: two
[3]
  patients with favorable responses: one
[4]; 20 evaluable patients
  patients with stable disease: 10 patients
[4]; 20 evaluable patients, initial 8 mg/m^2/day iv Days 1-5 of 21-day cycle
  patients with partial response: 3 patients
[4]; p5% confidence interval 0-30.6%, 20 evaluable patients
  partial response rate: 15%
[4]; range 6.4-18.7+ weeks
  median duration of partial response: 13.1 weeks
[5]; trimetrexate 0.1 μg/ml
  Number of Tumors with 50% or Greater Decrease in Tumor Colony Forming Units: 2
[5]; trimetrexate 1.0 μg/ml
  Number of Tumors with 50% or Greater Decrease in Tumor Colony Forming Units: 1
[6]; trimetrexate 0.1 μg/ml
  Number of Tumors with 50% or Greater Decrease in Tumor Colony Forming Units: 1
[6]; trimetrexate 1.0 μg/ml
  Number of Tumors with 50% or Greater Decrease in Tumor Colony Forming Units: 1
[7]
  single agent activity: the more active of the two single agents
[8]; trimetrexate 0.1 μg/ml
  Number of Tumors with 50% or Greater Decrease in Tumor Colony Forming Units: 11
[8]; trimetrexate 1.0 μg/ml
  Number of Tumors with 50% or Greater Decrease in Tumor Colony Forming Units: 13
[8]; trimetrexate 0.1 μg/ml, methotrexate 0.3 μg/ml, 8/54
  human tumor cultures sensitive to trimetrexate and resistant to methotrexate: 15%
[9]
  IC50: 10 nM
[10]
  Life Span % T/C: Negligible
